Values after ≈ are worked out from the molar mass of the structure shown. Values belong to the molecule of their own block, whether it stands above or below them.
Legend:
[1] = biological target: Cyclin-dependent kinase 1 (Homo sapiens, UniProt P06493); experiment: Inhibition of CDK1
[2] = system: LoVo; experiment: Antiproliferative activity against human LoVo cells assessed as inhibition of BrdU incorporation after 48 hrs; type: functional, cell-based
[3] = biological target: Cyclin-dependent kinase 2 (Homo sapiens, UniProt P24941); experiment: Inhibition of CDK2
[4] = physchem; details: buffer, pH 7.4
Description: Equilibrium solubility at pH 7.4 after 24 hrs

[5] = Dissociation constant, pKa of the compound; type: physicochemical
[6] = Protein binding in rat plasma assessed as fraction unbound; type: ADME, cell-free; details: read-out: PPB
[7] = AUC in rat at 2.5 umol/kg, iv; type: ADME, organism-based; details: plasma
[8] = biological target: Cyclin-dependent kinase 9 (Homo sapiens) (UniProt P50750); experiment: Inhibition of CDK9
Sequence of Cyclin-dependent kinase 9 (Homo sapiens) (P50750 whole entry): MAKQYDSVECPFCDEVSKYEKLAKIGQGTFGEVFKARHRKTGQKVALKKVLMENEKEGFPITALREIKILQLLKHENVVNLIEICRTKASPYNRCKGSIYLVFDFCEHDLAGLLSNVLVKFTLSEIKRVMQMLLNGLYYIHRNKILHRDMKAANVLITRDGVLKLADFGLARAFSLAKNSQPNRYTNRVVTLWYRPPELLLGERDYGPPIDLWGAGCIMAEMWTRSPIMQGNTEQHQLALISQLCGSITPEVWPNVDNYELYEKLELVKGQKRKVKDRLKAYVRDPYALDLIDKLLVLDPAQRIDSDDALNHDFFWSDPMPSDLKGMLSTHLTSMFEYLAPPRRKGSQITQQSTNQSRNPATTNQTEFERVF

[9] = Volume of distribution at steady state in rat at 2.5 umol/kg, iv; type: ADME, organism-based; details: in vivo, read-out: Vdss
[10] = Lipophilicity, log D of the compound; type: physicochemical; details: octanol/water
[11] = biological target: Voltage-gated inwardly rectifying potassium channel KCNH2 (Homo sapiens, UniProt Q12809); experiment: Inhibition of human ERG
Sequence of Voltage-gated inwardly rectifying potassium channel KCNH2 (Q12809 whole entry): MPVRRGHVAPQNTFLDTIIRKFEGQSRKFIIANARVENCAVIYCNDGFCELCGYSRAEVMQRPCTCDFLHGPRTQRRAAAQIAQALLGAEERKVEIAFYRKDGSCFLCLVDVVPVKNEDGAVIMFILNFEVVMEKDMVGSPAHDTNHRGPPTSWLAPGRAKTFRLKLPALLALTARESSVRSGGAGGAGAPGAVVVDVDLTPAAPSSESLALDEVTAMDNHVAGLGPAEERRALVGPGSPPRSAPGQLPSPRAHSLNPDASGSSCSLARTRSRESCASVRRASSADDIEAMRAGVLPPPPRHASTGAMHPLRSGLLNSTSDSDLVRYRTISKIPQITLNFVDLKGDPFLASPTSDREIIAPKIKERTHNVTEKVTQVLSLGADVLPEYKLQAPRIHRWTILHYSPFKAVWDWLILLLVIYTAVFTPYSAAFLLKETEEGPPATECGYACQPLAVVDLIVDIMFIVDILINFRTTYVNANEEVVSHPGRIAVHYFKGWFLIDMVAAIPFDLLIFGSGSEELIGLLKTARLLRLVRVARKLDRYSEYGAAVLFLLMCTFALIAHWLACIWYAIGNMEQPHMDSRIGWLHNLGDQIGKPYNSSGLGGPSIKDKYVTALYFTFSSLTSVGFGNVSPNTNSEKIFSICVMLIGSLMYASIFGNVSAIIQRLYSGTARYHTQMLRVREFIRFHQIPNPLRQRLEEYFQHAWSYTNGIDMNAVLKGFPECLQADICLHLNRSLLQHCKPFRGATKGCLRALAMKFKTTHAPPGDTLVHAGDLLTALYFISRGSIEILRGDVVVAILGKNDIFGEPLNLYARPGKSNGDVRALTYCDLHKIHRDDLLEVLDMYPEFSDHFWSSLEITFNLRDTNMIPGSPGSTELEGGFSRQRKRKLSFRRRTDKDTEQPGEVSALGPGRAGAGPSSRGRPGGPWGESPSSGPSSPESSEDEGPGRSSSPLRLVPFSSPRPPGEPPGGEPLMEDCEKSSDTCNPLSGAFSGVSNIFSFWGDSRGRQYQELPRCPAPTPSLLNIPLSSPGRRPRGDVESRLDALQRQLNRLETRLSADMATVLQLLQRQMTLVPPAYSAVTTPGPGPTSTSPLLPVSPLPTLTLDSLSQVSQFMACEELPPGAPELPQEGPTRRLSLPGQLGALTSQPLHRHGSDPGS

[12] = Clearance in rat at 2.5 umol/kg, iv; type: ADME, organism-based; details: in vivo
[13] = Protein binding in Han/Wistar rat plasma assessed as fraction unbound; type: ADME, cell-free; details: read-out: PPB
[14] = Half life in nude mouse at 5 umol/kg, iv; type: ADME, organism-based; details: in vivo
[15] = species: Canis familiaris; experiment: Clearance in Beagle dog assessed as liver blood flow; type: ADME, organism-based, Canis lupus familiaris; details: in vivo
[16] = Stability in dog plasma; type: ADME, cell-free, Canis lupus familiaris; details: read-out: Stability
[17] = biological target: Cytochrome P450 3A4 (Homo sapiens, UniProt P08684); experiment: Inhibition of CYP3A4; type: ADME
Sequence of Cytochrome P450 3A4 (P08684 whole entry): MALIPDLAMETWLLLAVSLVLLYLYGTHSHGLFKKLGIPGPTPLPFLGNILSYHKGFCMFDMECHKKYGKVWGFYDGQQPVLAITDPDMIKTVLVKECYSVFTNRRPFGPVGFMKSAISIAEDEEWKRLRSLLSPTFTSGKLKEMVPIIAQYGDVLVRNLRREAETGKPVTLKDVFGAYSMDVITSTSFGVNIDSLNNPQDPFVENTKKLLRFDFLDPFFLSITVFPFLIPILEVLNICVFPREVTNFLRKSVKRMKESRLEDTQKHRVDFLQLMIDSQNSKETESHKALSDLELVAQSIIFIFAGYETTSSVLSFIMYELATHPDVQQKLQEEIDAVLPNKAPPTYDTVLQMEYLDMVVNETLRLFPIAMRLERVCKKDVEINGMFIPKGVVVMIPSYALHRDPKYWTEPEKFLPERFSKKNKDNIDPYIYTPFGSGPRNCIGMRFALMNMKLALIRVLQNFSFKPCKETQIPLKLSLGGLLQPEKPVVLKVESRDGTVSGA

[18] = Clearance in nude mouse at 5 umol/kg, iv; type: ADME, organism-based; details: in vivo
[19] = Stability in human plasma; type: ADME, cell-free; details: read-out: Stability
[20] = system: Mus musculus; experiment: AUC in nude mouse at 5 umol/kg, iv; type: ADME, organism-based, Plasma; details: in vivo
[21] = biological target: Cytochrome P450 2C19 (Homo sapiens, UniProt P33261); experiment: Inhibition of CYP2C19; type: ADME
Sequence of Cytochrome P450 2C19 (P33261 whole entry): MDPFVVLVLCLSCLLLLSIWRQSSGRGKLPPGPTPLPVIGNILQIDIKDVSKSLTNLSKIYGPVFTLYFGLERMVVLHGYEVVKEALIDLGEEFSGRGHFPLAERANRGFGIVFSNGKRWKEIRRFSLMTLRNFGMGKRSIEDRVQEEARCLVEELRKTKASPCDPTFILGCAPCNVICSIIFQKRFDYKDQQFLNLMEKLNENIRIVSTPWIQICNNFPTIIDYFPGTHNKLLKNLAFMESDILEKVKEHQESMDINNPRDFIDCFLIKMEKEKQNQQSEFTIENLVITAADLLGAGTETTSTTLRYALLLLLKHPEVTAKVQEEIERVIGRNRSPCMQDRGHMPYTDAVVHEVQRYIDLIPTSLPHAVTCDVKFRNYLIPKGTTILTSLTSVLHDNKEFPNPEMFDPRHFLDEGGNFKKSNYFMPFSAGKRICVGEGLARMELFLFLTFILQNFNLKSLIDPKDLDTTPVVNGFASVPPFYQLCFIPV

[22] = Protein binding in nude mouse plasma assessed as fraction unbound; type: ADME, cell-free; details: read-out: PPB
[23] = system: SW-620; experiment: Antitumor activity against human SW620 cells xenografted nude mouse assessed as inhibition of tumor volume at 15 mg/kg, ip administered thrice a week for 3 weeks; type: functional; details: SW-620, ip, 504 h, route intraperitoneal
[24] = system: Plasma; experiment: Protein binding in Beagle dog plasma assessed as fraction unbound; type: ADME, cell-free, Canis lupus familiaris
[25] = Stability in rat plasma; type: ADME, cell-free; details: read-out: Stability
[26] = Aqueous solubility in saline at pH 5; type: physicochemical; details: read-out: Activity
[27] = Half life in Han/Wistar rat at 2.5 umol/kg, iv; type: ADME, organism-based; details: in vivo
[28] = Clearance in Beagle dog at 0.2 umol/kg, iv; type: ADME, organism-based, Canis lupus familiaris; details: in vivo
[29] = biological target: Cytochrome P450 2C9 (Homo sapiens, UniProt P11712); experiment: Inhibition of CYP2C9; type: ADME
Sequence of Cytochrome P450 2C9 (P11712 whole entry): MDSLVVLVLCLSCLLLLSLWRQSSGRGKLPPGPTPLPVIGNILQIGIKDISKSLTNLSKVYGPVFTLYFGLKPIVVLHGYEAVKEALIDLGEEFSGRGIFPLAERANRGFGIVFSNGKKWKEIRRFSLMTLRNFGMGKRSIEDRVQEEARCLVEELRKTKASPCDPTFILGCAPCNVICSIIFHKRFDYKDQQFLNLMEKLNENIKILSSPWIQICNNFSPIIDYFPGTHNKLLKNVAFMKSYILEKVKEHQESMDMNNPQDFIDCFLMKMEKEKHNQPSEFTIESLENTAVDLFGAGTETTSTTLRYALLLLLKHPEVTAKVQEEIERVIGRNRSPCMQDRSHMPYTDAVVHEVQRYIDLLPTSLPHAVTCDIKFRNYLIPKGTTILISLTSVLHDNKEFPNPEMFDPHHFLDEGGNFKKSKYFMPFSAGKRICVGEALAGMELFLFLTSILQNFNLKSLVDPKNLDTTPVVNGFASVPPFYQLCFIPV

[30] = system: Rattus norvegicus; experiment: AUC in Han/Wistar rat at 2.5 umol/kg, iv; type: ADME, organism-based, Plasma; details: in vivo
[31] = Photostability assessed as half life; type: physicochemical
[32] = biological target: T1, Cytochrome P450 1A2 (Homo sapiens, UniProt P05177); experiment: Inhibition of CYP1A2; type: ADME
T1 sequence (P05177 whole entry): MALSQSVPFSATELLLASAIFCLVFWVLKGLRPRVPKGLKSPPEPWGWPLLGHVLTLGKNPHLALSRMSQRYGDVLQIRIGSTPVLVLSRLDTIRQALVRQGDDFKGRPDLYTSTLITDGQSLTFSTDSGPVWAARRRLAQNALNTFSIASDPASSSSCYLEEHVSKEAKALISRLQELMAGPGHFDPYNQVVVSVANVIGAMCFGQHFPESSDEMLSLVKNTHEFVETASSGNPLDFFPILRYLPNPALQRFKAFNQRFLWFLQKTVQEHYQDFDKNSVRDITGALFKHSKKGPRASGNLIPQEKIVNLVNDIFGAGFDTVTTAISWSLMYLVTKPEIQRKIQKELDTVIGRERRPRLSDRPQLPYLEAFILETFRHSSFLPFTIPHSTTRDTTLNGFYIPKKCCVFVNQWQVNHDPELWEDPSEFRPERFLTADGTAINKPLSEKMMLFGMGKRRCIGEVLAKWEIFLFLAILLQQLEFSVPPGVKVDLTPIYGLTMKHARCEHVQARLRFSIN

[33] = biological target: Cytochrome P450 2D6 (Homo sapiens, UniProt P10635); experiment: Inhibition of CYP2D6; type: ADME
Sequence of Cytochrome P450 2D6 (P10635 whole entry): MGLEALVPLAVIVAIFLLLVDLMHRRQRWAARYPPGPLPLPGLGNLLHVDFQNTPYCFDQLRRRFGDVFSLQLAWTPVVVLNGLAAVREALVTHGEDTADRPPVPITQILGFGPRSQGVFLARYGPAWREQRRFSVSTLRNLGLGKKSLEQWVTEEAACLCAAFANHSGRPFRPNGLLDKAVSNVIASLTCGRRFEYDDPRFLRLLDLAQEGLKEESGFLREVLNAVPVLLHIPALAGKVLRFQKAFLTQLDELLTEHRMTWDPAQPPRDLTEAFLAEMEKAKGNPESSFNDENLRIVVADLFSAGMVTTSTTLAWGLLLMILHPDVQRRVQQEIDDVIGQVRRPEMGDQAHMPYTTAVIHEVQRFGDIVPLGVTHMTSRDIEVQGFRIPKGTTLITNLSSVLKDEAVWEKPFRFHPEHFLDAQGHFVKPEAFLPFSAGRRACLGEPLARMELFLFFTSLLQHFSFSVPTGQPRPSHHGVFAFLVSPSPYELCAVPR

[34] = Clearance in Han/Wistar rat at 2.5 umol/kg, iv; type: ADME, organism-based; details: in vivo
[35] = Volume of distribution at steady state in nude mouse at 5 umol/kg, iv; type: ADME, organism-based; details: in vivo, read-out: Vdss
[36] = Volume of distribution at steady state in Beagle dog at 0.2 umol/kg, iv; type: ADME, organism-based, Canis lupus familiaris; details: in vivo, read-out: Vdss
[37] = Hydrolytic stability assessed as half life at pH 4 to 10; type: physicochemical; details: buffer
[38] = system: Canis familiaris; experiment: AUC in Beagle dog at 0.2 umol/kg, iv; type: ADME, organism-based, Canis lupus familiaris, Plasma; details: in vivo
[39] = Half life in Beagle dog at 0.2 umol/kg, iv; type: ADME, organism-based, Canis lupus familiaris; details: in vivo
[40] = Volume of distribution at steady state in Han/Wistar rat at 2.5 umol/kg, iv; type: ADME, organism-based; details: in vivo, read-out: Vdss
[41] = AUC in rat at 1 umol/kg, iv; type: ADME, organism-based; details: plasma
[42] = Clearance in rat at 1 umol/kg, iv; type: ADME, organism-based; details: in vivo
[43] = Volume of distribution at steady state in rat at 1 umol/kg, iv; type: ADME, organism-based; details: in vivo, read-out: Vdss

Sequence of Cyclin-dependent kinase 1 (P06493 whole entry): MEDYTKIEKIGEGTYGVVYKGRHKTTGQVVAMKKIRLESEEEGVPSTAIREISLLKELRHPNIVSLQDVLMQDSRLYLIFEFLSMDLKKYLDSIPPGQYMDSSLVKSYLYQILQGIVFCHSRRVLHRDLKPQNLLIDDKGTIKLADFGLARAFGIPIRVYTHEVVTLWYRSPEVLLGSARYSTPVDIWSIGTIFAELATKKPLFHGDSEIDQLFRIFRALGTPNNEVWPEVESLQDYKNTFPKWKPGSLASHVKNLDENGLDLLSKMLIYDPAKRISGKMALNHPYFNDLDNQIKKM

SMILES: Cc1ncc(-c2ccnc(Nc3ccc(C(=O)N4CCN(C)CC4)cc3)n2)n1C(C)C
pKa [5]: 7 | IC50 [1]: 71 nM | IC50 [2]: 520 nM | IC50 [3]: 9 nM

SMILES: Cc1ncc(-c2ccnc(Nc3ccc(C(=O)N4CC[C@H](NC5CC5)C4)cc3)n2)n1C(C)C
IC50 [1]: 100 nM | IC50 [2]: 250 nM | IC50 [3]: < 1 nM

SMILES: Cc1ncc(-c2nc(Nc3ccc(C(=O)N4CC[C@H](N(C)C)C4)cc3)ncc2F)n1C(C)C
pKa [5]: 7.4 | fraction unbound [6]: 0.04 | AUC [7]: 0.8 µM·h | solubility thermodynamic at 24 h [4]: > 2100 µM | Activity [8]: 0.005 µM | IC50 [1]: 11 nM | IC50 [2]: 37 nM | Vd [9]: 3.4 L/kg | logD [10]: 2.1 | Activity [11]: 33 µM | clearance [12]: 23 mL/min/kg

SMILES: CN[C@H]1CCN(C(=O)c2ccc(Nc3ncc(F)c(-c4cnc(C)n4C(C)C)n3)cc2)C1
fraction unbound [13]: 0.04 | half-life [14]: 3.4 h | %hepatic blood flow [15]: 58% | half-life [16]: > 18 h | Activity [17]: > 10 µM | clearance [18]: 35 mL/min/kg | half-life [19]: > 18 h | AUC [20]: 2.4 µM·h | Activity [21]: > 10 µM | fraction unbound [22]: 0.16 | inhibition in vivo at 15 mg/kg [23]: 55% | PPB [24]: > 67% | half-life [25]: > 18 h | solubility [26]: > 50 µM | half-life [27]: 3.6 h | IC50 [1]: 2 nM | clearance [28]: 19 mL/min/kg | IC50 [2]: 39 nM | IC50 [3]: 2 nM | Activity [29]: > 10 µM | AUC [30]: 1.38 µM·h | half-life [31]: > 24 h | Activity [32]: > 10 µM | Activity [33]: > 10 µM | clearance [34]: 30 mL/min/kg | Vd [35]: 5.1 L/kg | Vd [36]: 40.4 L/kg | half-life [37]: > 100 days | logD [10]: 1.45 | Activity [11]: 95 µM | AUC [38]: 0.18 µM·h | half-life [39]: 32.3 h | Vd [40]: 6.4 L/kg

SMILES: Cc1ncc(-c2nc(Nc3ccc(C(=O)N4CCCN(C)CC4)cc3)ncc2F)n1C(C)C
pKa [5]: 8.1 | fraction unbound [6]: 0.07 | solubility thermodynamic at 24 h [4]: > 2600 µM | AUC [41]: 0.3 µM·h | Activity [8]: 0.012 µM | IC50 [1]: 5 nM | IC50 [2]: 40 nM | IC50 [3]: 2 nM | clearance [42]: 28 mL/min/kg | logD [10]: 2 | Activity [11]: > 32 µM | Vd [43]: 1.5 L/kg

SMILES: Cc1ncc(-c2nc(Nc3ccc(C(=O)NCCN(C)C)c(F)c3)ncc2F)n1C(C)C
pKa [5]: 8.6 | fraction unbound [6]: 0.07 | AUC [7]: 0.8 µM·h | solubility thermodynamic at 24 h [4]: > 2700 µM | Activity [8]: 0.003 µM | IC50 [1]: < 1 nM | IC50 [2]: 2 nM | IC50 [3]: 2 nM | Vd [9]: 9.8 L/kg | logD [10]: 2.3 | Activity [11]: > 65 µM | clearance [12]: 24 mL/min/kg

SMILES: Cc1ncc(-c2nc(Nc3ccc(C(=O)NC4CCN(C)CC4)c(F)c3)ncc2F)n1C(C)C
pKa [5]: 8.8 | fraction unbound [6]: 0.06 | AUC [7]: 1.3 µM·h | solubility thermodynamic at 24 h [4]: 270 µM (≈ 127 µg/mL) | Activity [8]: 0.013 µM | IC50 [1]: 12 nM | IC50 [2]: 80 nM | IC50 [3]: 1 nM | Vd [9]: 5.2 L/kg | logD [10]: 2.4 | clearance [12]: 16 mL/min/kg

SMILES: Cc1ncc(-c2ccnc(Nc3ccc(C(=O)NC4CCN(C)CC4)c(F)c3)n2)n1C(C)C
solubility thermodynamic at 24 h [4]: > 2200 µM | IC50 [1]: 150 nM | IC50 [2]: 200 nM | IC50 [3]: 11 nM

Further molecules by falling IC50 [1], results first:

IC50 [1]: 180 nM | IC50 [2]: 2100 nM | IC50 [3]: 37 nM
SMILES: Cc1ncc(-c2ccnc(Nc3ccc(C(=O)NC4CCN(C)CC4)cc3)n2)n1C(C)C

pKa [5]: 6.9 | solubility thermodynamic at 24 h [4]: 60 µM (≈ 26.3 µg/mL) | IC50 [1]: 130 nM | IC50 [2]: 170 nM | IC50 [3]: 18 nM
SMILES: Cc1ncc(-c2nc(Nc3ccc(C(=O)N4CCN(C)CC4)cc3)ncc2F)n1C(C)C

IC50 [1]: 120 nM | IC50 [2]: 62 nM | IC50 [3]: 4 nM
SMILES: CCCN(C)[C@H]1CCN(C(=O)c2ccc(Nc3nccc(-c4cnc(C)n4C(C)C)n3)cc2)C1

solubility thermodynamic at 24 h [4]: > 2500 µM | IC50 [1]: 50 nM | IC50 [2]: 320 nM | IC50 [3]: 36 nM
SMILES: Cc1ncc(-c2nc(Nc3ccc(C(=O)NC4CCN(C)CC4)cc3)ncc2F)n1C(C)C

solubility thermodynamic at 24 h [4]: > 1900 µM | IC50 [1]: 29 nM | IC50 [2]: 3 nM
SMILES: Cc1ncc(-c2ccnc(Nc3ccc(C(=O)NCCN(C)C)c(F)c3)n2)n1C(C)C

solubility thermodynamic at 24 h [4]: > 2400 µM | IC50 [1]: 11 nM | IC50 [2]: 70 nM
SMILES: Cc1ncc(-c2nc(Nc3ccc(C(=O)N4CC[C@@H](N(C)C)C4)cc3)ncc2F)n1C(C)C

IC50 [1]: 9 nM | IC50 [2]: 180 nM | IC50 [3]: 2 nM
SMILES: CN[C@H]1CCN(C(=O)c2ccc(Nc3nccc(-c4cnc(C)n4C(C)C)n3)cc2)C1

— ChEMBL document CHEMBL1152195, “The discovery of AZD5597, a potent imidazole pyrimidine amide CDK inhibitor suitable for intravenous dosing” (Bioorg Med Chem Lett, 2008)
